Assays:
Details in all cases: incubation time: 72 h
[1] = system: BT-474; test: normalised response (% of control), CellTox Green; higher = less cell death (100 = DMSO, 0 = benzethonium chloride kill control)
In short: (§1)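 Two readouts were taken after 72 h: CellTox Green fluorescence (485/520 nm) first, then CellTiter-Glo luminescence after 10 min at room temperature. Breast cancer cell lines had been seeded as 20 µl suspension into 384-well plates holding compound at 5 concentrations in 10-fold steps across a compound-specific 10,000-fold range. Each value is a normalised signal at a single concentration, with plates scaled to 0.1 % DMSO (100) and a positive kill control (0).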

[2] = system: BT-549; test: as above
In short: as §1

[3] = system: CAL-120; test: as above
In short: as §1

[4] = system: CAL-148; test: as above
In short: as §1

[5] = system: CAL-51; test: as above
In short: as §1

[6] = system: CAL-85-1; test: as above
In short: as §1

[7] = system: DU-4475; test: as above
In short: as §1

[8] = system: HCC1143; test: as above
In short: as §1

[9] = system: HCC1599; test: as above
In short: as §1

[10] = system: HCC1937; test: as above
In short: as §1

[11] = system: HDQ-P1; test: as above
In short: as §1

[12] = system: Hs578T; test: as above
In short: as §1

[13] = system: MCF-10A; test: as above
In short: as §1

[14] = system: MDA-MB-231; test: as above
In short: as §1

[15] = system: MDA-MB-436; test: as above
In short: as §1

[16] = system: MDA-MB-453; test: as above
In short: as §1

[17] = system: MDA-MB-468; test: as above
In short: as §1

[18] = system: MFM-223; test: as above
In short: as §1

[19] = system: BT-474; test: normalised response (% of control), CellTiter-Glo; higher = more viable cells (100 = DMSO, 0 = benzethonium chloride kill control)
Method: (§2)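 DSRT, 72 h incubation, CellTox Green / CellTiter-Glo readout. Signal is normalised to DMSO and benzethonium chloride controls. Value is the normalised response at dose 3.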

[20] = system: BT-549; test: as above
Method: as §2

[21] = system: CAL-120; test: as above
Method: as §2

[22] = system: CAL-148; test: as above
Method: as §2

[23] = system: CAL-51; test: as above
Method: as §2

[24] = system: CAL-85-1; test: as above
Method: as §2

[25] = system: DU-4475; test: as above
Method: as §2

[26] = system: HCC1143; test: as above
Method: as §2

[27] = system: HCC1599; test: as above
Method: as §2

[28] = system: HCC1937; test: as above
Method: as §2

[29] = system: HDQ-P1; test: as above
Method: as §2

[30] = system: Hs578T; test: as above
Method: as §2

[31] = system: MCF-10A; test: as above
Method: as §2

[32] = system: MDA-MB-231; test: as above
Method: as §2

[33] = system: MDA-MB-436; test: as above
Method: as §2

[34] = system: MDA-MB-453; test: as above
Method: as §2

[35] = system: MDA-MB-468; test: as above
Method: as §2

[36] = system: MFM-223; test: as above
Method: as §2

[37] = system: SK-BR-3; test: as above
Method: as §2

| SMILES | normalised response [1] | normalised response [2] | normalised response [3] | normalised response [4] | normalised response [5] | normalised response [6] | normalised response [7] | normalised response [8] | normalised response [9] | normalised response [10] | normalised response [11] | normalised response [12] | normalised response [13] | normalised response [14] | normalised response [15] | normalised response [16] | normalised response [17] | normalised response [18] | normalised response [19] | normalised response [20] | normalised response [21] | normalised response [22] | normalised response [23] | normalised response [24] | normalised response [25] | normalised response [26] | normalised response [27] | normalised response [28] | normalised response [29] | normalised response [30] | normalised response [31] | normalised response [32] | normalised response [33] | normalised response [34] | normalised response [35] | normalised response [36] | normalised response [37] |
| --- | --- | --- | --- | --- | --- | --- | --- | --- | --- | --- | --- | --- | --- | --- | --- | --- | --- | --- | --- | --- | --- | --- | --- | --- | --- | --- | --- | --- | --- | --- | --- | --- | --- | --- | --- | --- | --- |
| Cc1ccc(-c2cc(C(F)(F)F)nn2-c2ccc(S(N)(=O)=O)cc2)cc1 [Celecoxib] (100 nM) | 99.5% | 90.5% | 102% | 95.4% | 111% | 101% | 101% | 98.9% | 95.6% | 106% | 101% | 96.8% | 102% | 93.2% | 71.4% | 104% | 89.2% | 98.7% | 99% | 100% | 103% | 95.4% | 110% | 97.6% | 103% | 104% | 98.1% | 94% | 94.7% | 111% | 97.8% | 101% | 97.4% | 110% | 98.9% | 104% | 102% |
| O=C(/C=C/c1cccnc1)NCCCCC1CCN(C(=O)c2ccccc2)CC1 [Daporinad] (10 nM) | 95.6% | – | 100% | 96.1% | 112% | 105% | 101% | 58.3% | 101% | 101% | 105% | 21.9% | 96% | 95.4% | 93.7% | 105% | 106% | 84.7% | 97% | 102% | 56.2% | 115% | 115% | 44.6% | 30.4% | 45.2% | 4.73% | 42.5% | 74.4% | 18.4% | 41.6% | 91.5% | 105% | 21.1% | 1.06% | 5.44% | 103% |

Source: the supplement of paper PMC4862054
